What was measured:
human M5 receptor = human M5 receptor (Homo sapiens (Human), UniProt P08912); experiment: Radioligand (tritiated N-methylscopolamine) binding assay, M5; details: CHO cell membranes expressing human M5; 1.5 nM tritiated N-methylscopolamine; 90 min, 37° C.; read-out: Ki against M5 receptor (Table 21, M5)
Procedure: (§1) Binding affinity (Ki) of compounds was measured by inhibition of radioligand binding to membranes from CHO cells expressing human M1, M2, M3, M4 and M5 receptors. Membranes were prepared by nitrogen cavitation and differential centrifugation as previously described (Hoare et al., Mol. Pharmacol. 2003 March; 63(3): 751-65). The radioligand employed was tritiated N-methylscopolamine, used at a concentration of 1.5 nM. A dose-response of twelve concentrations of compound was used, ranging from 10 μM to […]. The assay buffer was 50 mM HEPES, 100 mM NaCl, 5 mM MgCl2, 1 mM ethylenediaminetetraacetic acid, pH-adjusted to pH 7.4. Membranes, radioligand and compound were incubated together for 90 minutes at 37° C., in a total volume of 150 μl in a 96-well plate. Receptor-bound radioligand was then collected by harvesting the assay over glass fiber filters pretreated with polyethylenimine to trap the cell membranes, using rapid vacuum filtration. Harvesting and radioactivity counting was conducted as previously described (see, e.g., Hoare et al., Mol. Pharmacol. 2003 63(3):751-65); Erratum at Mol. Pharmacol. 2005 July; 68(1): 260).

human M3 receptor = human M3 receptor (Homo sapiens (Human), UniProt P20309); experiment: Radioligand (tritiated N-methylscopolamine) binding assay, M3; details: CHO cell membranes expressing human M3; 1.5 nM tritiated N-methylscopolamine; 90 min, 37° C.; read-out: Ki against M3 receptor (Table 21, M3)
human M3 receptor, sequence (P20309 whole entry): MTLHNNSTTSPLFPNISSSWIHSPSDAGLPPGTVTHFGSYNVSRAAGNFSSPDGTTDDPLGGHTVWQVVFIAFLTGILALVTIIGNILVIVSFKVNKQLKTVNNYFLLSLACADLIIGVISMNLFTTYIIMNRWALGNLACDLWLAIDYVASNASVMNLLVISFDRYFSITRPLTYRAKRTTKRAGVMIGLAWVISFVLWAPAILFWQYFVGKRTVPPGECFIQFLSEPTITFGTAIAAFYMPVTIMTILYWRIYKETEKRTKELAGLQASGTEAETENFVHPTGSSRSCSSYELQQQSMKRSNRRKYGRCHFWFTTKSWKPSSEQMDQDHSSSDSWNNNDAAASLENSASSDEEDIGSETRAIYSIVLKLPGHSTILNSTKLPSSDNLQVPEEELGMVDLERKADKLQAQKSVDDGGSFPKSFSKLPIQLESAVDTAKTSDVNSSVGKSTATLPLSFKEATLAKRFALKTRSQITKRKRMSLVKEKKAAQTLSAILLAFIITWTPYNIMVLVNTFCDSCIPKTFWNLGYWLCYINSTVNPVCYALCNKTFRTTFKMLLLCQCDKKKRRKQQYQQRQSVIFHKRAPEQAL
Procedure: as §1

human M4 receptor = human M4 receptor (Homo sapiens (Human), UniProt P08173); experiment: Radioligand (tritiated N-methylscopolamine) binding assay, M4; details: Ki against the M4 receptor; membranes from CHO cells expressing human M4; tritiated N-methylscopolamine 1.5 nM; read-out: Ki
human M4 receptor, sequence (P08173 whole entry): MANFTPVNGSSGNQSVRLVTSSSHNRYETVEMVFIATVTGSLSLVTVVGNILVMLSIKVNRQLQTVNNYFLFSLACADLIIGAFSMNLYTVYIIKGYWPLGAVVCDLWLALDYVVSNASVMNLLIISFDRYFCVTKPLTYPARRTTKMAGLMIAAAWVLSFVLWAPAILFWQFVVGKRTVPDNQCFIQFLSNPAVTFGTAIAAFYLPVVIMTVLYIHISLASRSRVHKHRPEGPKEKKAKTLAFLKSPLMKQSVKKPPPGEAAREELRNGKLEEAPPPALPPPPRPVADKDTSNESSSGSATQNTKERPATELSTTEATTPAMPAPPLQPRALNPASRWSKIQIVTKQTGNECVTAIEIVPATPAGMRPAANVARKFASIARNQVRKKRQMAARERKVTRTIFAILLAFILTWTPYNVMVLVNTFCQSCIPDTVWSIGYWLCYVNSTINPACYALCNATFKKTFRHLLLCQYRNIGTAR
Summary of the method: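 Membranes came from recombinant CHO cells expressing human muscarinic subtypes and were incubated with compound and [3H]NMS (1.5 nM) in HEPES/NaCl/MgCl2/EDTA buffer, pH 7.4, at 37° C for 90 min. Twelve-point dose-response (printed 10–[…]). Filter-bound radioactivity was counted and Ki values derived.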

human M2 receptor = human M2 receptor (Homo sapiens (Human), UniProt P08172); experiment: Radioligand (tritiated N-methylscopolamine) binding assay, M2; details: CHO cell membranes expressing human M2; 1.5 nM tritiated N-methylscopolamine; 90 min, 37° C.; read-out: Ki against M2 receptor (Table 21, M2)
human M2 receptor, sequence (P08172 whole entry): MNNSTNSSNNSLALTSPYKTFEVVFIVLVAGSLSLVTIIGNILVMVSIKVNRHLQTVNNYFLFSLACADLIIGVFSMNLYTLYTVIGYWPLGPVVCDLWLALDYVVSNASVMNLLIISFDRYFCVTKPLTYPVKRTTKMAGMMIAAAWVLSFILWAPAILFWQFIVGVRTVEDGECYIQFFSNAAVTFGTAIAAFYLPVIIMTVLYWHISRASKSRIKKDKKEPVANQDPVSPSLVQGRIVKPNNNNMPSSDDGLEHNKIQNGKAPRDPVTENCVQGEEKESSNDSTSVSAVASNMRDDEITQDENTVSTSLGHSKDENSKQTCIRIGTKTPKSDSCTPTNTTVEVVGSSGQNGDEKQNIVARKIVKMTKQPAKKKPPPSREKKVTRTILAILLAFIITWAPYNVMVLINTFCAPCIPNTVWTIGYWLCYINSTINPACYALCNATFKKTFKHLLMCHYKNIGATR
Procedure: as §1

human M1 receptor = human M1 receptor (Homo sapiens (Human), UniProt P11229); experiment: Radioligand (tritiated N-methylscopolamine) binding assay, M1; details: CHO cell membranes expressing human M1; 1.5 nM tritiated N-methylscopolamine; 90 min, 37° C.; read-out: Ki against M1 receptor (Table 21, M1)
human M1 receptor, sequence (P11229 whole entry): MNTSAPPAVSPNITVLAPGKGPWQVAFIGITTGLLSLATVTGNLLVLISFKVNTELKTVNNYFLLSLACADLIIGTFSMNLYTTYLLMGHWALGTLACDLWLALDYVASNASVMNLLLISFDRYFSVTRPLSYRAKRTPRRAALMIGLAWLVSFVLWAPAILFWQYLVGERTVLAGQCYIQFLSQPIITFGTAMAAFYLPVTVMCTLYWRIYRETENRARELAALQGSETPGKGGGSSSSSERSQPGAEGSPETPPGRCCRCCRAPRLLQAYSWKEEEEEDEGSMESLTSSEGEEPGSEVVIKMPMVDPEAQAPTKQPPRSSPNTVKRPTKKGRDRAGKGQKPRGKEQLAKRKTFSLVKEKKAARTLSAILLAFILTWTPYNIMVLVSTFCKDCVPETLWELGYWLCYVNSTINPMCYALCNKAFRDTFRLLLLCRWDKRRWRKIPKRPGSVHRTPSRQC
Procedure: as §1

human M5 receptor, sequence (P08912 whole entry): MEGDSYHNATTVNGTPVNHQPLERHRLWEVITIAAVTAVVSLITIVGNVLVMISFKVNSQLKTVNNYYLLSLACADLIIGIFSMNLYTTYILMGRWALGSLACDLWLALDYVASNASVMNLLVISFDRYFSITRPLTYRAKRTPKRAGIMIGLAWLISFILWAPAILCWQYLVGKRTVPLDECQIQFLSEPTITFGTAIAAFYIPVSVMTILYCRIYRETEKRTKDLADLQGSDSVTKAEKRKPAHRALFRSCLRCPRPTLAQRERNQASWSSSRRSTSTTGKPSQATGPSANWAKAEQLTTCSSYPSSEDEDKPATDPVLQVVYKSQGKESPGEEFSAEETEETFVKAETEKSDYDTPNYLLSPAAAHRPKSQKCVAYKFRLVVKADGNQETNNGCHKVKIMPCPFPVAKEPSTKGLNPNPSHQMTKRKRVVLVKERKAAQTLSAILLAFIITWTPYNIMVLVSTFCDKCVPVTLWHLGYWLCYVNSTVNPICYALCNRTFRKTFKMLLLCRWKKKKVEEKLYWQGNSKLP

| Compound | Ki (human M5 receptor) | Ki (human M3 receptor) | Ki (human M4 receptor) | Ki (human M2 receptor) | Ki (human M1 receptor) |
| --- | --- | --- | --- | --- | --- |
| C[C@H]1CN(c2ccc(F)c(C#N)c2)CCN1C(=O)NCCC1CCN(Cc2ccccc2)CC1 [4-20, (2S)-N-[2-(1-benzylpiperidin-4-yl)ethyl]-4-(3-cyano-4-fluorophenyl)-2-methylpiperazine-1-carboxamide] | > 1000 nM | > 1000 nM | < 10 nM | 10 to 100 nM | 100 to 1000 nM |
| C[C@H]1CN(c2ccc(OC(F)(F)F)c(C#N)c2)CCN1C(=O)NCCC1CCN(Cc2ccccc2)CC1 [4-21, (2S)-N-[2-(1-benzylpiperidin-4-yl)ethyl]-4-[3-cyano-4-(trifluoromethoxy)phenyl]-2-methylpiperazine-1-carboxamide] | > 1000 nM | 100 to 1000 nM | < 10 nM | 10 to 100 nM | 100 to 1000 nM |
| C[C@@H]1CN(C(=O)NCCC2CCN(Cc3ccccc3)CC2)CCN1c1ccc(OC(F)(F)F)c(F)c1 [4-22, (3R)-N-[2-(1-benzylpiperidin-4-yl)ethyl]-4-[3-fluoro-4-(trifluoromethoxy)phenyl]-3-methylpiperazine-1-carboxamide] | 100 to 1000 nM | > 1000 nM | < 10 nM | 100 to 1000 nM | > 1000 nM |
| C[C@@H]1CN(c2cc(F)c(F)c(Cl)c2)CCN1C(=O)NCCC1CCN(Cc2ccccc2)CC1 [4-52, (2R)-N-[2-(1-benzylpiperidin-4-yl)ethyl]-4-(3-chloro-4,5-difluorophenyl)-2-methylpiperazine-1-carboxamide] | > 1000 nM | 100 to 1000 nM | < 10 nM | 10 to 100 nM | 100 to 1000 nM |
| C[C@H]1CN(c2ccc(OC(F)(F)F)c(F)c2)CCN1C(=O)NCCC1CCN(Cc2ccccc2)CC1 [4-53, (2S)-N-[2-(1-benzylpiperidin-4-yl)ethyl]-4-[3-fluoro-4-(trifluoromethoxy)phenyl]-2-methylpiperazine-1-carboxamide] | 100 to 1000 nM | 100 to 1000 nM | < 10 nM | 10 to 100 nM | 100 to 1000 nM |
| C[C@@H]1CN(c2cc(F)c(OC(F)(F)F)c(F)c2)CCN1C(=O)NCCC1CCN(Cc2ccccc2)CC1 [4-60, (2R)-N-[2-(1-benzylpiperidin-4-yl)ethyl]-4-[3,5-difluoro-4-(trifluoromethoxy)phenyl]-2-methylpiperazine-1-carboxamide] | 100 to 1000 nM | 100 to 1000 nM | < 10 nM | 10 to 100 nM | 100 to 1000 nM |
| C[C@@H]1CN(c2cccc(C#N)c2)CCN1C(=O)NCCC1CCN(Cc2ccccc2)CC1 [4-68, (2R)-N-[2-(1-benzylpiperidin-4-yl)ethyl]-4-(3-cyanophenyl)-2-methylpiperazine-1-carboxamide] | > 1000 nM | > 1000 nM | < 10 nM | 100 to 1000 nM | 100 to 1000 nM |
| C[C@H]1CN(C(=O)NCCC2CCN(Cc3ccccc3)CC2)CCN1c1cc(F)c(F)c(F)c1 [4-71, (3S)-N-[2-(1-benzylpiperidin-4-yl)ethyl]-3-methyl-4-(3,4,5-trifluorophenyl)piperazine-1-carboxamide] | > 1000 nM | > 1000 nM | < 10 nM | 100 to 1000 nM | 100 to 1000 nM |
| C[C@@H]1CN(c2ccc(C(F)(F)F)cc2F)CCN1C(=O)NCCC1CCN(Cc2ccccc2)CC1 [4-73, (2R)-N-[2-(1-benzylpiperidin-4-yl)ethyl]-4-[2-fluoro-4-(trifluoromethyl)phenyl]-2-methylpiperazine-1-carboxamide] | > 1000 nM | 100 to 1000 nM | < 10 nM | 10 to 100 nM | 100 to 1000 nM |
| O=C(NCCC1CCN(Cc2ccccc2)CC1)N1CCN(c2ccc(C(F)(F)F)cc2)CC1 [4-76, N-[2-(1-benzylpiperidin-4-yl)ethyl]-4-[4-(trifluoromethyl)phenyl]piperazine-1-carboxamide] | > 1000 nM | > 1000 nM | < 10 nM | 100 to 1000 nM | > 1000 nM |
| O=C(NCCC1CCN(Cc2ccccc2)CC1)N1CCN(c2ccc(C(F)(F)F)cn2)CC1 [4-77, N-[2-(1-benzylpiperidin-4-yl)ethyl]-4-[5-(trifluoromethyl)pyridin-2-yl]piperazine-1-carboxamide] | > 1000 nM | > 1000 nM | < 10 nM | 10 to 100 nM | 100 to 1000 nM |
| C[C@@H]1CN(c2cnc(C(F)(F)F)nc2)CCN1C(=O)NCCC1CCN(Cc2ccccc2)CC1 [4-79, (2R)-N-[2-(1-benzylpiperidin-4-yl)ethyl]-2-methyl-4-[2-(trifluoromethyl)pyrimidin-5-yl]piperazine-1-carboxamide] | > 1000 nM | > 1000 nM | < 10 nM | 10 to 100 nM | 100 to 1000 nM |
| C[C@@H]1CN(c2cnc(C#N)nc2)CCN1C(=O)NCCC1CCN(Cc2ccccc2)CC1 [4-80, (2R)-N-[2-(1-benzylpiperidin-4-yl)ethyl]-4-(2-cyanopyrimidin-5-yl)-2-methylpiperazine-1-carboxamide] | > 1000 nM | > 1000 nM | < 10 nM | 100 to 1000 nM | 100 to 1000 nM |
| C[C@@H]1CN(c2ncc(C#N)c(N)n2)CCN1C(=O)NCCC1CCN(Cc2ccccc2)CC1 [5-1, (2R)-4-(4-amino-5-cyanopyrimidin-2-yl)-N-[2-(1-benzylpiperidin-4-yl)ethyl]-2-methylpiperazine-1-carboxamide] | > 1000 nM | > 1000 nM | < 10 nM | 100 to 1000 nM | > 1000 nM |
| C[C@@H]1CN(c2nc(Cl)cc(C#N)n2)CCN1C(=O)NCCC1CCN(Cc2ccccc2)CC1 [5-5, (2R)-N-[2-(1-benzylpiperidin-4-yl)ethyl]-4-(4-chloro-6-cyanopyrimidin-2-yl)-2-methylpiperazine-1-carboxamide] | > 1000 nM | > 1000 nM | < 10 nM | 100 to 1000 nM | 100 to 1000 nM |
| C[C@@H]1CN(c2nccc(C(F)(F)F)n2)CCN1C(=O)NCCC1CCN(Cc2ccccc2)CC1 [5-8, (2R)-N-[2-(1-benzylpiperidin-4-yl)ethyl]-2-methyl-4-[4-(trifluoromethyl)pyrimidin-2-yl]piperazine-1-carboxamide] | > 1000 nM | 100 to 1000 nM | < 10 nM | 10 to 100 nM | > 1000 nM |
| COc1nc(N2C[C@@H](C)N(C(=O)NCCC3CCN(Cc4ccccc4)CC3)[C@@H](C)C2)ncc1C#N [5-17, (2R,6S)-N-[2-(1-benzylpiperidin-4-yl)ethyl]-4-(5-cyano-4-methoxypyrimidin-2-yl)-2,6-dimethylpiperazine-1-carboxamide] | > 1000 nM | 100 to 1000 nM | < 10 nM | 100 to 1000 nM | 100 to 1000 nM |
| C[C@@H]1CN(c2ncc(Cl)cn2)C[C@H](C)N1C(=O)NCCC1CCN(Cc2ccccc2)CC1 [5-18, (2S,6R)-N-[2-(1-benzylpiperidin-4-yl)ethyl]-4-(5-chloropyrimidin-2-yl)-2,6-dimethylpiperazine-1-carboxamide] | > 1000 nM | > 1000 nM | < 10 nM | 10 to 100 nM | > 1000 nM |
| C[C@@H]1CN(c2ncc(C#N)cn2)C[C@H](C)N1C(=O)NCCC1CCN(Cc2ccccc2)CC1 [5-20, (2S,6R)-N-[2-(1-benzylpiperidin-4-yl)ethyl]-4-(5-cyanopyrimidin-2-yl)-2,6-dimethylpiperazine-1-carboxamide] | > 1000 nM | > 1000 nM | < 10 nM | 100 to 1000 nM | > 1000 nM |
| C[C@@H]1CN(c2ncc(Cl)cn2)CCN1C(=O)NCCC1CCN(Cc2ccccc2)CC1 [5-22, (2R)-N-[2-(1-benzylpiperidin-4-yl)ethyl]-4-(5-chloropyrimidin-2-yl)-2-methylpiperazine-1-carboxamide] | > 1000 nM | > 1000 nM | < 10 nM | 10 to 100 nM | 100 to 1000 nM |
| CNc1nc(N2CCN(C(=O)NCCC3CCN(Cc4ccccc4)CC3)[C@H](C)C2)ncc1C#N [5-23, (2R)-N-[2-(1-benzylpiperidin-4-yl)ethyl]-4-[5-cyano-4-(methylamino)pyrimidin-2-yl]-2-methylpiperazine-1-carboxamide] | > 1000 nM | > 1000 nM | < 10 nM | 10 to 100 nM | 100 to 1000 nM |

Source: patent US11033539B2, “Compounds of formulas (VII), (VIII), (IX), (XI), (XII), (XIII), and (XIV) as muscarinic receptor 4(M4) antagonists for treating neurological diseases” (Neurocrine Biosciences, Inc., priority 2015, dated 2021)
